In patent US10189809B2, “SGC stimulators” (Ironwood Pharmaceuticals, Inc., priority 2010, dated 2019):
Read-outs that look alike come from different tables or passages of the source.

Tests used:
[1] = target: T1, soluble guanylate cyclase (sGC) (Homo sapiens (Human), UniProt Q02108+Q02153); test: sGC-HEK-cGMP assay run with SNP incubation (HEK WC assay); format: cell-based; conditions: for HEK WC Assay (fold increase at 30 μM in the presence of 10 μM SNP): compound at 30 μM; for EC50: in the presence of 10 uM SNP
How it was run: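 EC50 values derive from concentration-response curves of intracellular cGMP in HEK293 cells, which express sGC endogenously. Compound and sodium nitroprusside were co-incubated 10 min at 37 °C after a 15-min 0.5 mM IBMX step, with 0.1 M HCl lysis and 1% DMSO vehicle.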

[2] = target: T1, soluble guanylate cyclase (sGC); test: sGC-HEK-cGMP assay run in the absence of SNP (HEK WC assay); format: cell-based; conditions: compound at 30 μM, absence of SNP
Description: Human embryonic kidney cells (HEK293), endogenously expressing soluble guanylate cyclase (sGC), were used to evaluate the activity of test compounds. Compounds stimulating the sGC receptor should cause an increase in the intracellular concentration of cGMP. HEK 293 cells were seeded in Dulbecco's Modification of Eagle's Medium supplemented with fetal bovine serum (10% final) and L-glutamine (2 mM final) in a 200 μL volume at a density of 1×10^5 cells/well in a poly-D-lysine coated 96 well flat bottom plate and grown overnight at 37° C. Medium was aspirated and cells were washed with 1× Hank's Buffered Saline Salt Solution (200 μL). Cells were then incubated for 15 minutes at 37° C. with 0.5 mM 3-isobutyl-1-methylxanthine (200 μL). Test article was then added to the assay mixture (2 μL) and incubated at 37° C. for 10 minutes. After the 10 minute incubation, the assay mixture was aspirated and 0.1M HCl (200 μL) was added to the cells. The plate was incubated at 4° C. for 30 minutes in the 0.1M HCl to stop the reaction and lysed the cells. The plates were then centrifuged at 1,200 g for 5 minutes at room temperature. Supernatants were collected and transferred to a new flat bottom 96 well plate for analysis. Vehicle controls were carried out using DMSO (1%). A known sGC stimulator, BAY 41-2272, was used as the positive control. Samples were diluted with an equal volume of 1 M Ammonium Acetate (pH 7) to neutralize samples for better chromatography. A 2× cGMP standard curve was prepared in 0.1 M HCl and then diluted with an equal volume of 1 M Ammonium Acetate, with the following final concentrations in nM: 1024, 512, 256, 128, 64, 32, 16, 8, 4, 2, 1. cGMP concentrations were determined from each sample using the LC/MS conditions (Table 2 below) and calculated standard curve. EC50 values were calculated from concentration-response curves generated with GraphPad Prism Software.

[3] = read-out: HEK WC Assay (% Emax at 1 μM with 10 uM SNP)
[4] = read-out: HEK WC Assay (% Emax at 10 μM with 10 uM SNP)
[5] = read-out: HEK WC Assay (% Emax at 30 μM with 10 uM SNP)

T1 sequence (Q02153 whole entry): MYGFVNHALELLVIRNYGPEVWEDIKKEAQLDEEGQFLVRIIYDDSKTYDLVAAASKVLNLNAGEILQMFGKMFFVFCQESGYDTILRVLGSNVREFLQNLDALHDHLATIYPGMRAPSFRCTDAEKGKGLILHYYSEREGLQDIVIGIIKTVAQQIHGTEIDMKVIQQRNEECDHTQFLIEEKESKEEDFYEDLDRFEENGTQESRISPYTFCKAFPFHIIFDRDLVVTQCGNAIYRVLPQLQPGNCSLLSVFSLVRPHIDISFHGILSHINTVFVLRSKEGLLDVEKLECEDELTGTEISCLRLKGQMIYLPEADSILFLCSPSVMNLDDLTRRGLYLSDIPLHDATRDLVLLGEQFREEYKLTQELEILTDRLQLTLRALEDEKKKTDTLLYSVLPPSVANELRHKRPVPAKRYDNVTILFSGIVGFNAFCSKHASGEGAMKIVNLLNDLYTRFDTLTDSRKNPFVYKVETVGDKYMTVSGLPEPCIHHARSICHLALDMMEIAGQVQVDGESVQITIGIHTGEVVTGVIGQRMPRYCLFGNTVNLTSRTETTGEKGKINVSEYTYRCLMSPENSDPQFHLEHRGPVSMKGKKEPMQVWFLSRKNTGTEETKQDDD
T1 sequence (Q02108 whole entry): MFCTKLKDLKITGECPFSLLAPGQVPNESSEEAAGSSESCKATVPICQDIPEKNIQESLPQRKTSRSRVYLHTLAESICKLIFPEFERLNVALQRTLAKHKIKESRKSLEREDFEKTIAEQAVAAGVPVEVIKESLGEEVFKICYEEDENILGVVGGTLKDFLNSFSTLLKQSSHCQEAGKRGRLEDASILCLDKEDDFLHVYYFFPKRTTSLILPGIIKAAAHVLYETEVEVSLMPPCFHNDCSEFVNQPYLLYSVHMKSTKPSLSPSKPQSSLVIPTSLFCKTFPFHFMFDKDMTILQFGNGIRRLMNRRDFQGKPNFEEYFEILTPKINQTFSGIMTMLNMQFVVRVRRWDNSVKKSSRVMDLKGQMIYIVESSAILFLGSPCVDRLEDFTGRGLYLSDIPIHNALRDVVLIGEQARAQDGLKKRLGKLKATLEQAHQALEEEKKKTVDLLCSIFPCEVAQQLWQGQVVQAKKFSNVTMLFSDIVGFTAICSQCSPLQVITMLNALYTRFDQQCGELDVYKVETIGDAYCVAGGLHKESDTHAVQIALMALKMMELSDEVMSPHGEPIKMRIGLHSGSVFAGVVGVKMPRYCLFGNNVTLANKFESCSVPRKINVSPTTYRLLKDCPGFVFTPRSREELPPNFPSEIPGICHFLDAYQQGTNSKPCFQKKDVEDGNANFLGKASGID

Compound | HEK WC Assay (fold increase at 30 μM in the presence of 10 μM SNP) [1] | EC50 [1] [µM] | Emax [1, 3] [%] | Emax [1, 4] [%] | Emax [1, 5] [%] | HEK WC Assay (fold increase at 30 μM in the absence of SNP) [2]
Nc1nc(-c2cc(-c3ccon3)n(Cc3ccccc3F)n2)ncc1NC(=O)c1cccc(Cl)c1 [Compound I-187] | F (F = 20 to <30 fold increase) | < 20 | 40 to 60 | 60 to 80 | 60 to 80 | D (D = 5 to <10 fold increase)
CC(C)(C)C(=O)Nc1cnc(-c2cc(-c3ncco3)n(Cc3ccccc3F)n2)nc1N [Compound I-191] | E (E = 10 to <20 fold increase) | < 20 | 20 to 40 | 40 to 60 | 80 to 100 | C (C = 2 to <5 fold increase)
Oc1nc(-c2cc(-c3ccon3)n(Cc3ccccc3F)n2)ncc1Br [Compound I-192] | E (E = 10 to <20 fold increase) | < 20 | 20 to 40 | 40 to 60 | 40 to 60 | D (D = 5 to <10 fold increase)
Nc1nc(-c2cc(-c3ccon3)n(Cc3ccccc3F)n2)ncc1NC(=O)c1cccc(O)n1 [Compound I-193] | E (E = 10 to <20 fold increase) | < 20 | 10 to 20 | 40 to 60 | 60 to 80 | E (E = 10 to <20 fold increase)
Fc1ccccc1Cn1nc(-c2ncccn2)cc1-c1ccon1 [Compound I-195] | E (E = 10 to <20 fold increase) | < 20 | 40 to 60 | 60 to 80 | 60 to 80 | D (D = 5 to <10 fold increase)
Oc1nc(-c2cc(-c3ncco3)n(Cc3ccccc3F)n2)ncc1F [Compound I-197] | E (E = 10 to <20 fold increase) | 20 to 40 | 10 to 20 | 40 to 60 | 40 to 60 | C (C = 2 to <5 fold increase)
Fc1cccc(Cn2nc(-c3ncccn3)cc2-c2ccon2)c1F [Compound I-198] | E (E = 10 to <20 fold increase) | < 20 | 40 to 60 | 40 to 60 | 60 to 80 | D (D = 5 to <10 fold increase)
Fc1cccc(F)c1Cn1nc(-c2ncccn2)cc1-c1ccon1 [Compound I-199] | E (E = 10 to <20 fold increase) | 20 to 40 | 10 to 20 | 20 to 40 | 40 to 60 | C (C = 2 to <5 fold increase)
Clc1ccccc1Cn1nc(-c2ncccn2)cc1-c1ccon1 [Compound I-200] | C (C = 2 to <5 fold increase) | 300 to 600 | 0 to 10 | 0 to 10 | 0 to 10 | B (B = 1 to <2 fold increase)
FC(F)(F)c1ccccc1Cn1nc(-c2ncccn2)cc1-c1ccon1 [Compound I-201] | B (B = 1 to <2 fold increase) | – | 0 to 10 | 0 to 10 | 0 to 10 | B (B = 1 to <2 fold increase)
Fc1cccc(Cn2nc(-c3ncccn3)cc2-c2ccon2)c1 [Compound I-202] | E (E = 10 to <20 fold increase) | < 20 | 20 to 40 | 40 to 60 | 40 to 60 | C (C = 2 to <5 fold increase)
Cc1nc(-c2cc(-c3ccon3)n(Cc3ccccc3F)n2)nc(O)c1F [Compound I-203] | D (D = 5 to <10 fold increase) | 60 to 100 | 0 to 10 | 10 to 20 | 20 to 40 | B (B = 1 to <2 fold increase)
c1cnc(-c2cc(-c3ccon3)n(Cc3cscn3)n2)nc1 [Compound I-204] | C (C = 2 to <5 fold increase) | – | 0 to 10 | 0 to 10 | 0 to 10 | B (B = 1 to <2 fold increase)
Oc1ccccc1Cn1nc(-c2ncccn2)cc1-c1ccon1 [Compound I-207] | C (C = 2 to <5 fold increase) | 900 to 1200 | 0 to 10 | 0 to 10 | 0 to 10 | B (B = 1 to <2 fold increase)
c1cnc(-c2cc(-c3ccon3)n(Cc3cncnc3)n2)nc1 [Compound I-208] | D (D = 5 to <10 fold increase) | 100 to 300 | 0 to 10 | 10 to 20 | 10 to 20 | B (B = 1 to <2 fold increase)
CC(C)(O)C(=O)Nc1cnc(-c2cc(-c3ccon3)n(Cc3ccccc3F)n2)nc1N [Compound I-209] | E (E = 10 to <20 fold increase) | 20 to 40 | 10 to 20 | 20 to 40 | 40 to 60 | C (C = 2 to <5 fold increase)
OCCc1cnc(-c2cc(-c3ccon3)n(Cc3ccccc3F)n2)nc1O [Compound I-210] | D (D = 5 to <10 fold increase) | 60 to 100 | 0 to 10 | 10 to 20 | 20 to 40 | C (C = 2 to <5 fold increase)
Nc1nc(-c2cc(-c3ccon3)n(Cc3ccccc3F)n2)ncc1NC(=O)c1ccccc1OC(F)(F)F [Compound I-211] | E (E = 10 to <20 fold increase) | 20 to 40 | 20 to 40 | 20 to 40 | 40 to 60 | D (D = 5 to <10 fold increase)
Nc1nc(-c2cc(-c3ccon3)n(Cc3ccccc3F)n2)ncc1NC(=O)CN1C(=O)c2ccccc2C1=O [Compound I-212] | E (E = 10 to <20 fold increase) | < 20 | 60 to 80 | 60 to 80 | 60 to 80 | D (D = 5 to <10 fold increase)
NCC(=O)Nc1cnc(-c2cc(-c3ccon3)n(Cc3ccccc3F)n2)nc1N [Compound I-213] | E (E = 10 to <20 fold increase) | 60 to 100 | 0 to 10 | 10 to 20 | 20 to 40 | D (D = 5 to <10 fold increase)
